# Experimental data reported in patent EP3722296B1, “DIHYDRONAPHTHYRIDINES AND RELATED COMPOUNDS USEFUL AS KINASE INHIBITORS FOR THE TREATMENT OF PROLIFERATIVE DISEASES” (Deciphera Pharmaceuticals, LLC, priority 2012, dated 2013).
# Columns and labels:
# [1] = target: T1, c-KIT D816H kinase (Homo sapiens, UniProt P10721, D816H); test: c-KIT D816H Kinase Assay; assay type: biochemical; conditions: enzymatic assay, ATP 200 µM
# T1 construct: The construct contains residues T544-V976 of cKit; GST (N); TEV cleavage site (internal); purchased deCODE Biostructures
# Description: (§1) In this assay, the oxidation of NADH (measured by decrease in absorbance at 340 nm) was continuously monitored spectrophotometrically. […] The inhibition reaction was started by mixing serial diluted test compound with the above reaction mixture. The absorption at 340 nm was monitored continuously for 6 hours at 30 °C on Synergy 2 plate reader (BioTech). […] The protein construct was prepared by deCODE Biostructures using procedures known in the art. The construct contains […] of cKit, an N-terminal tag, a GST-fusion sequence and a TEV cleavage site. This construct is identical to Seq ID no.
# [2] = target: T2, c-KIT V654A kinase (Homo sapiens, UniProt P10721, V654A); test: c-KIT V654A Kinase Assay; assay type: biochemical; conditions: enzymatic assay, ATP 200 µM
# T2 construct: residues T544-V976 with N-terminal GST fusion; purchased deCODE Biostructures
# Description: (§2) In this assay, the oxidation of NADH (measured by decrease in absorbance at 340 nm) was continuously monitored spectrophotometrically. […] The inhibition reaction was started by mixing serial diluted test compound with the above reaction mixture. The absorption at 340 nm was monitored continuously for 6 hours at 30 °C on Synergy 2 plate reader (BioTech).
# (§3) The protein construct was prepared by deCODE Biostructures using procedures known in the art. The construct contains residues T544-V976 of cKit, an N-terminal tag, a GST-fusion sequence and a TEV cleavage site. This construct is identical to Seq ID no.
# [3] = target: T3, c-KIT D816V kinase (Homo sapiens, UniProt P10721, D816V); test: c-KIT D816V kinase Assay; assay type: biochemical; conditions: enzymatic assay, ATP 200 uM
# T3 construct: residues T544-V976 with N-terminal GST fusion; purchased deCODE Biostructures
# Description: as §2, with “5” for “6”
# as §3
# [4] = test system: GIST T1 cells; test: GIST T1 Cell Proliferation Assay; assay type: cell-based; conditions: Homo sapiens, GISTT1, 72 h, 68 hours + 4 hours resazurin
# Description: GIST48, GIST430, and GIST882 cells were obtained from J. Fletcher (Brigham and Women's Hospital, Boston, MA). GIST T1 cells were obtained from B. Rubin (Cleveland Clinic, Cleveland, OH) and Professor Takahiro Taguchi (Kochi Medical School, Nankoku, Kochi, Japan). Briefly, GIST48 and GIST 882 cells were grown in RPMI 1640 medium supplemented with 15% characterized fetal bovine serum (Invitrogen, Carlsbad, CA), 1 unit/mL penicillin G, 1 µg/ml streptomycin, and 0.29 mg/mL L-glutamine at 37 °C, 5% CO2, and 95% humidity. GIST430 cells were grown in Ham's F10 medium supplemented with 15% characterized fetal bovine serum (Invitrogen, Carlsbad, CA), 30 mg/L bovine pituitary extract (BD Biosciences, San Jose, CA), 0.5% Mito+ serum extender (BD Biosciences, San Jose, CA), 1 unit/mL penicillin G, 1 µg/ml streptomycin, and 0.29 mg/mL L-glutamine at 37 °C, 5%CO2, 95% humidity. GIST T1 cells were grown in DMEM medium supplemented with 10% characterized fetal bovine serum (Invitrogen, Carlsbad, CA), 1 unit/mL penicillin G, 1 µg/ml streptomycin, and 0.29 mg/mL L-glutamine at 37 °C, 5% CO2, and 95% humidity.
# A serial dilution of test compound was dispensed into a 384-well black clear bottom plate (Corning, Corning, NY). One thousand two-hundred fifty cells were added per well in 50 µL complete growth medium. Plates were incubated for 68 hours at 37 °C, 5% CO2, 95% humidity. At the end of the incubation period 10 µL of a 440 µM solution of resazurin (Sigma, St. Louis, MO) in PBS was added to each well and incubated for an additional 4 hours at 37 °C, 5% CO2, 95% humidity. Plates were read on a Synergy2 reader (Biotek, Winooski, VT) using an excitation of 540 nm and an emission of 600 nm.
# [5] = target: c-KIT kinase (Homo sapiens, UniProt P10721); test: c-KIT kinase Assay; assay type: biochemical; parameters: cKIT residues T544-V976; GST (N); TEV cleavage site (internal); purchased deCODE Biostructures; conditions: enzymatic assay, ATP 200 µM; read-out: KIT (wt) IC50
# Description: In this assay, the oxidation of NADH (measured by decrease in absorbance at 340 nm) was continuously monitored spectrophotometrically. […] The absorption at 340 nm was monitored continuously for 2 hours at 30 °C on Synergy 2 (BioTeK). The reaction rate was calculated using the 0 to 1 h time frame. Percent inhibition was obtained by comparison of reaction rate with that of a control (i.e. with no test compound). IC50 values were calculated from a series of percent inhibition values determined at a range of inhibitor concentrations using software routines as implemented in the GraphPad Prism software package. The protein construct was prepared by deCODE Biostructures using procedures known in the art. The construct contains […] of cKit, an N-terminal tag, a GST-fusion sequence and a TEV cleavage site. [formula]
# [6] = target: T4, c-KIT T670I kinase (Homo sapiens, UniProt P10721, T670I); test: c-KIT T670I kinase assay; assay type: biochemical; conditions: enzymatic assay
# T4 construct: The construct contains residues T544-V976 of cKit; GST (N); TEV cleavage site (internal); purchased deCODE Biostructures
# Description: as §1, with “5” for “6”, “no. 1 except for the T670I mutation. [formula] [formula]” for “no.”
# T1 sequence (P10721 544-976 D816H): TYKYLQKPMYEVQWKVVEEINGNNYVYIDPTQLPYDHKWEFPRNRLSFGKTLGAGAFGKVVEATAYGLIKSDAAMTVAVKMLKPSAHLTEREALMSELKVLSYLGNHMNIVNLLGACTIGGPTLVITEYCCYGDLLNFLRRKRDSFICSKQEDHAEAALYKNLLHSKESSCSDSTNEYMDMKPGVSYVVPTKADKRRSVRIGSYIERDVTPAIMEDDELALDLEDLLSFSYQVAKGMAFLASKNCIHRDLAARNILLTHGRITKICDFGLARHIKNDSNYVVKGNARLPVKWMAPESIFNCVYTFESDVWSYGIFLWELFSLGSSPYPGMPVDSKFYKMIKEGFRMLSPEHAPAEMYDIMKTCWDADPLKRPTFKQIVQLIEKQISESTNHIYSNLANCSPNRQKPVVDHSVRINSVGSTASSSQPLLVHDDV
# Sequence of c-KIT kinase (P10721 544-976): as the sequence (P10721 544-976 D816H) above, with H273D counted along it
# T4 sequence (P10721 544-976 T670I): as the sequence (P10721 544-976 D816H) above, with T127I, H273D counted along it
# T3 sequence (P10721 544-976 D816V): as the sequence (P10721 544-976 D816H) above, with H273V counted along it
# T2 sequence (P10721 544-976 V654A): as the sequence (P10721 544-976 D816H) above, with V111A, H273D counted along it
structure (smiles),measurement,setting,value
"CCn1c(=O)c(-c2cc(NC(=O)Nc3ccccc3)c(F)cc2Br)cc2cnc(NC(=O)N(C)C)cc21 [Example 105, 3-(3-(2-bromo-4-fluoro-5-(3-phenylureido)phenyl)-1-ethyl-2-oxo-1,2-dihydro-1,6-naphthyridin-7-yl)-1,1-dimethylurea]",IC50,[1],10 to 100 nM
same,IC50,[2],10 to 100 nM
same,IC50,[3],10 to 100 nM
same,IC50,[4],< 10 nM
same,IC50,[5],10 to 100 nM
same,IC50,[6],10 to 100 nM
"CCn1c(=O)c(-c2cc(NC(=O)Nc3ccc(F)c(CN4CCN(C)CC4)c3)c(F)cc2C)cc2cnc(NC=O)cc21 [Example 100, N-(1-ethyl-3-(4-fluoro-5-(3-(4-fluoro-3-((4-methylpiperazin-1-yl)methyl)phenyl)ureido)-2-methylphenyl)-2-oxo-1,2-dihydro-1,6-naphthyridin-7-yl)formamide]",IC50,[1],100 to 1000 nM
same,IC50,[2],100 to 1000 nM
same,IC50,[3],100 to 1000 nM
same,IC50,[4],10 to 100 nM
same,IC50,[5],10 to 100 nM
same,IC50,[6],100 to 1000 nM
"CCn1c(=O)c(-c2cc(NC(=O)Nc3cccc(F)c3)c(F)cc2C)cc2cnc(NC(=O)N(C)C)cc21 [Example 106, 3-(1-ethyl-3-(4-fluoro-5-(3-(3-fluorophenyl)ureido)-2-methylphenyl)-2-oxo-1,2-dihydro-1,6-naphthyridin-7-yl)-1,1-dimethylurea]",IC50,[1],< 10 nM
same,IC50,[2],10 to 100 nM
same,IC50,[3],10 to 100 nM
same,IC50,[4],< 10 nM
same,IC50,[5],10 to 100 nM
same,IC50,[6],10 to 100 nM
"CCn1c(=O)c(-c2cc(NC(=O)Nc3ccc(F)c(CN4CCN(C)CC4)c3)c(F)cc2C)cc2cnc(N)cc21 [Example 93, 1-(5-(7-amino-1-ethyl-2-oxo-1,2-dihydro-1,6-naphthyridin-3-yl)-2-fluoro-4-methylphenyl)-3-(4-fluoro-3-((4-methylpiperazin-1-yl)methyl)phenyl)urea]",IC50,[1],10 to 100 nM
same,IC50,[2],100 to 1000 nM
same,IC50,[3],100 to 1000 nM
same,IC50,[4],10 to 100 nM
same,IC50,[5],10 to 100 nM
same,IC50,[6],10 to 100 nM
"CC(C)n1c(=O)c(-c2cc(NC(=O)Nc3cccc(F)c3)c(F)cc2Cl)cc2cnc(NC(=O)N(C)C)cc21 [Example 98, 3-(3-(2-chloro-4-fluoro-5-(3-(3-fluorophenyl)ureido)phenyl)-1-isopropyl-2-oxo-1,2-dihydro-1,6-naphthyridin-7-yl)-1,1-dimethylurea]",IC50,[1],10 to 100 nM
same,IC50,[2],10 to 100 nM
same,IC50,[3],< 10 nM
same,IC50,[4],< 10 nM
same,IC50,[5],10 to 100 nM
same,IC50,[6],10 to 100 nM
"CC(C)n1c(=O)c(-c2cc(NC(=O)Nc3ccccc3)c(F)cc2Cl)cc2cnc(NC(=O)N(C)C)cc21 [Example 103, 3-(3-(2-chloro-4-fluoro-5-(3-phenylureido)phenyl)-1-isopropyl-2-oxo-1,2-dihydro-1,6-naphthyridin-7-yl)-1,1-dimethylurea]",IC50,[1],10 to 100 nM
same,IC50,[2],10 to 100 nM
same,IC50,[3],< 10 nM
same,IC50,[4],10 to 100 nM
same,IC50,[5],10 to 100 nM
same,IC50,[6],10 to 100 nM
"CCn1c(=O)c(-c2cc(NC(=O)Nc3ccccc3)c(F)cc2Cl)cc2cnc(NC(=O)N3CC[C@H](N(C)C)C3)cc21 [Example 96, (S)-N-(3-(2-chloro-4-fluoro-5-(3-phenylureido)phenyl)-1-ethyl-2-oxo-1,2-dihydro-1,6-naphthyridin-7-yl)-3-(dimethylamino)pyrrolidine-1-carboxamide]",IC50,[1],10 to 100 nM
same,IC50,[2],10 to 100 nM
same,IC50,[3],10 to 100 nM
same,IC50,[4],< 10 nM
same,IC50,[5],< 10 nM
same,IC50,[6],10 to 100 nM
"CCn1c(=O)c(-c2cc(NC(=O)Nc3csc4ccccc34)c(F)cc2C)cc2cnc(NC(=O)N(C)C)cc21 [Example 104, 3-(3-(5-(3-(benzo[b]thiophen-3-yl)ureido)-4-fluoro-2-methylphenyl)-1-ethyl-2-oxo-1,2-dihydro-1,6-naphthyridin-7-yl)-1,1-dimethylurea]",IC50,[1],10 to 100 nM
same,IC50,[2],100 to 1000 nM
same,IC50,[3],10 to 100 nM
same,IC50,[4],10 to 100 nM
same,IC50,[5],10 to 100 nM
same,IC50,[6],10 to 100 nM
